Results from PubChem BioAssay (NCI).
Where “and” joins values, the source holds several entries; their conditions need not be identical. Equal values may be shown once.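 How tested: cells in 96-well plates exposed to compound for 48 hours at five concentrations. Here, GI50 denotes the concentration required for 50% inhibition of growth. TGI marks complete inhibition of growth.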

Key:
Experiment in all cases: DTP human tumour cell line panel, 48 h
[1] = tested on: OVCAR-8 ovarian
[2] = tested on: UACC-257 melanoma
[3] = tested on: MCF7 breast
[4] = tested on: NCI-H460 lung
[5] = tested on: CAKI-1 renal
[6] = tested on: T-47D breast
[7] = tested on: M14 melanoma
[8] = tested on: DU-145 prostate
[9] = tested on: OVCAR-3 ovarian
[10] = tested on: UACC-62 melanoma

| SMILES | TGI [1] [µM] | TGI [2] [µM] | TGI [3] [µM] | TGI [4] [µM] | TGI [5] | TGI [6] [µM] | TGI [7] [µM] | TGI [8] [µM] | TGI [9] [µM] | TGI [10] | GI50 [1] | GI50 [2] | GI50 [3] [nM] | GI50 [4] [nM] | GI50 [5] | GI50 [6] [µM] | GI50 [7] [nM] | GI50 [8] [nM] | GI50 [9] [nM] | GI50 [10] |
| --- | --- | --- | --- | --- | --- | --- | --- | --- | --- | --- | --- | --- | --- | --- | --- | --- | --- | --- | --- | --- |
| CCCC(=O)Nc1ccc2c(c1)CN1C(=O)c3ccccc3C1=N2 | > 100 | > 100 | > 100 | > 100 | > 100 µM | > 100 | > 100 | > 100 | > 100 | > 100 µM |  |  |  |  |  |  |  |  |  |  |
| N#C/C(=C1C=C/C(=N\O)C(Cl)=C\1)c1ccccc1 | 9.23 | 28.2 | 11.5 | 11.9 | 21.3 µM | 11.3 | 14.2 | 9.47 | 17 | 18.1 µM | 2710 nM | 4.49 µM | 321 | 2820 | 1680 nM | 0.6 | 3200 | 3320 | 3310 | 2800 nM |
| COc1cc(C2CC(c3ccccc3)=NN2C(C)=O)cc(OC)c1OC (centres undefined) | > 100 | > 100 | > 100 | > 51 | > 100 µM | > 100 | > 34.2 | 77.3 | 6.52 | > 100 µM | 7430 nM | > 100 µM | 2260 | 3550 | 2450 nM | 5.33 | 2470 | 5260 | 2110 | 4200 nM |
| CC(C)NC(=O)OCc1c(COC(=O)NC(C)C)c(-c2ccc(Cl)c(Cl)c2)n2c1CCC2 | 73.4 | 65.9 | > 100 | 68.3 | 42.2 µM | > 56.2 | 55.5 | > 100 | 69.9 | 53.9 µM |  |  |  |  |  |  |  |  |  |  |
| N=c1n(Cc2ccccc2)c(N)cc(=O)n1Cc1ccccc1 | 11.4 | 11 | 18.4 | 2.75 | 16.6 µM | 12.4 | 17.8 | 6.47 | 8.43 | 12 µM | 3180 nM | 3.1 µM | 2730 | 1080 | 2940 nM | 3.01 | 4720 | 2280 | 3340 | 3550 nM |
| CCn1c(-c2nonc2N)nc2cncc(C(=O)NCCNC)c21 | > 25 | > 25 | > 25 | > 25 | 14.4 µM | > 25 | > 25 | > 25 | > 25 | > 25 µM | 15300 nM | 3.04 µM | 1920 | 8590 | 1560 nM | 16.7 | 17200 | 22800 | > 23900 | 13600 nM |
| COc1ccc2c(c1)/C(=C\c1c(Cl)n(C)c3ccccc13)C(=O)N2 | 11.9 | 13.3 | > 38.7 | 15.9 | 13.6 µM | 31.4 | 23.8 | 15 | 1.91 | 5.34 µM | 1890 nM | 1.87 µM | 682 | 459 | 1100 nM | 3.02 | 1610 | 3070 | 633 | 255 nM |
| CCCCCCCCCCCCCCCCCC(=O)OCC(COC1OC(CS(=O)(=O)O)C(O)C(O)C1O)OC(=O)CCCCCCCCCCCCCCCCC (centres undefined) | > 100 | > 100 | > 100 | > 100 | > 100 µM | > 100 | > 100 | > 100 | > 100 | > 100 µM |  |  |  |  |  |  |  |  |  |  |
| CCN(CC)CCCC(Cc1ccccc1)Nc1c2ccc(Cl)cc2nc2ccc(OC)cc12 (centres undefined) | 5.26 | 3.44 | 3.35 | 5.92 | 5.9 µM | 4.16 | 3.51 | 18.3 | 12.2 | 3.64 µM | 2340 nM | 1.89 µM | 1540 | 2440 | 2100 nM | 1.97 | 1820 | 5000 | 2880 | 1950 nM |
| N#CCCSC(=S)C1CCCC1=N (centres undefined) | > 100 | > 100 | > 100 | > 100 | > 100 µM | > 100 | > 100 | > 100 | > 100 | > 100 µM |  |  |  |  |  |  |  |  |  |  |
| CCOC(=O)c1c(Cl)c2c(n1Cc1cccc(OC)c1)-c1oncc1CC2 | > 100 | > 100 | > 100 | 13.7 | > 100 µM | > 100 | > 100 | 27 | 2.92 | 29.3 µM | 7270 nM | 6.41 µM | 620 | 659 | 1850 nM | 4.41 | 2070 | 2420 | 383 | 608 nM |
| O=C(O)c1ccccc1-c1ccccc1C(=O)Nc1ccc2c(c1)[nH]c(=O)c1ccccc12 | > 100 | > 100 | > 100 | > 100 | > 100 µM | > 100 | > 100 | > 100 | > 100 | > 100 µM |  |  |  |  |  |  |  |  |  |  |
| COc1ccc(CCN2CCC(Nc3nc4ccccc4n3Cc3ccc(F)cc3)CC2)cc1 | 4.52 | 3.48 | 2.81 | 9.54 | 3.24 µM | 4.38 | 3.15 | 3.65 | 3.07 | 2.8 µM | 2020 nM | 1.67 µM | 1410 | 2670 | 1520 nM | 1.97 | 1720 | 1940 | 1660 | 1410 nM |
| O=C(O)CP(=O)(O)O | > 100 | > 100 | > 100 | > 100 | > 100 µM | > 100 | > 100 | > 100 | > 100 | > 100 µM |  |  |  |  |  |  |  |  |  |  |
| NC1=CC(=O)c2nc3ccccc3c3ccnc1c23 | 18.5 | 20 | > 100 | 4.6 | > 95.6 µM | > 67.4 | 26.7 | > 44.6 | > 51.9 | 17.2 µM | 2390 nM | 2.37 µM | 1290 | 90.8 | 4980 nM | 7.85 | 342 | 495 | 3600 | 2380 nM |
| CSc1nc(C)c(Br)c(=O)n1C1OC(COC(C)=O)C(OC(C)=O)C(OC(C)=O)C1OC(C)=O (centres undefined) | > 100 | > 100 | > 100 | > 100 | > 100 µM and 83.9 µM | > 100 | > 100 | > 100 | > 100 | > 100 µM and 44.1 µM | > 100000 nM and 36000 nM | > 100 µM and 39 µM |  |  | > 100000 nM and 33900 nM |  |  |  |  | 97000 nM and 23300 nM |
| CC1OC(n2c3ccccc3c3c4c(c5c6ccccc6[nH]c5c32)C(=O)N(CCN2CCOCC2)C4=O)CC(O)C1O (centres undefined) | 16.5 | 14.5 | 18 | 5.27 | 6.37 µM | 10.4 | 5.95 | 7.85 | 12.2 | 6.06 µM | 2740 nM | 6.11 µM | 1050 | 734 | 1440 nM | 1.37 | 1430 | 2000 | 4360 | 1030 nM |
| CC1(C)N=C(N)N=C(N)N1c1cccc(CCCCOc2ccccc2)c1 | > 100 | 23.5 | 17.5 | 12.4 | > 100 µM | 30.1 | > 41.3 | > 100 | 21 | 13.7 µM | 465 nM | 0.381 µM | 50 | < 10 | 2700 nM | 1.62 | 95.8 | 62.6 | 547 | 46.7 nM |
| OCC1OC2OC3C(CO)OC(OC4C(CO)OC(OC5C(CO)OC(OC6C(CO)OC(OC7C(CO)OC(OC1C(O)C2O)C(O)C7O)C(O)C6O)C(O)C5O)C(O)C4O)C(O)C3O (centres undefined) (tested in a mixture with another compound) | > 100 | > 100 | > 100 | > 100 | > 100 µM | > 100 | > 100 | > 100 | > 100 | > 100 µM |  |  |  |  |  |  |  |  |  |  |
| C=CC[C@@H]1/C=C(\C)C[C@H](C)C[C@H](OC)[C@H]2O[C@@](O)(C(=O)C(=O)N3CCCC[C@H]3C(=O)O[C@H](/C(C)=C/C3CC[C@@H](O)[C@H](OC)C3)[C@H](C)[C@@H](O)CC1=O)[C@H](C)C[C@@H]2OC (some centres undefined) | 39.3 | 30.6 | 29 | 27.9 | 33.4 µM | 35.6 | 28.6 | 30.2 | 27.2 | 27.6 µM | 16000 nM | 15.8 µM | 13800 | 13700 | 12900 nM | 16.5 | 14900 | 16100 | 14200 | 13400 nM |
| Cc1cc2cc3cc(C)c(N)cc3[n+](C)c2cc1N | 5.88 | 7.5 | 6.08 | 3.26 | 21.6 µM | 5.44 | 4.82 | 9.64 | 5.66 | 3.2 µM | 2260 nM | 1.05 µM | 476 | 1010 | 3440 nM | 1.06 | 1800 | 1770 | 1550 | 1410 nM |
| O=C1CCC(N2Cc3c(C#CCCCNC(=O)c4cc5c(o4)C(=O)c4ccccc4C5=O)cccc3C2=O)C(=O)N1 (centres undefined) | 87 | 4.48 | 3.73 | 4.09 | 30.7 µM | 11.9 | 3.59 | 3.28 | 4.8 | 3.65 µM | 3240 nM | 2 µM | 1630 | 1990 | 14300 nM | 3.16 | 1850 | 1820 | 1970 | 1870 nM |
| Cc1ccc(-c2nc(N)c(C#N)c3c2CCOc2c-3ccc3ccccc23)cc1 | 27.8 | > 100 | > 34.4 | > 46.4 | 16.9 µM | 45.9 | > 22.9 | 17.2 | 1.86 | > 100 µM | 2280 nM | 0.474 µM | 284 | 332 | 171 nM | 0.954 | 377 | 2040 | 69 | 935 nM |
| CC(C(=O)O)/C(=C\c1ccc2c(c1)OCO2)C(=O)O (centres undefined) | > 100 | > 100 | > 100 | > 100 | > 100 µM | > 100 | > 100 | > 100 | > 100 | > 100 µM |  |  |  |  |  |  |  |  |  |  |
| O=C1c2cc([N+](=O)[O-])cc3cc([N+](=O)[O-])cc(c23)C(=O)N1CCCNCCNCCCN1C(=O)c2cc([N+](=O)[O-])cc3cc([N+](=O)[O-])cc(c23)C1=O | 3.39 | 2.52 | 11.7 | 3.56 | 8.4 µM | 6.72 | 3.31 | 19.4 | 2.35 | 1.48 µM |  |  |  |  |  |  |  |  |  |  |
| Brc1ccccc1C=NC12CC3CC(CC(C3)C1)C2 | > 100 | > 100 | > 100 | > 100 | > 100 µM | > 100 | > 100 | > 100 | > 100 | > 100 µM |  |  |  |  |  |  |  |  |  |  |
| CC(=O)OC1Oc2cc(C)c(C)cc2-c2oc(=O)c(-c3ccc(F)cc3)cc21 (centres undefined) | > 100 | 26 | 20.1 | 24.4 | > 100 µM | 17.1 | > 100 | 77.7 | 16.6 | 76.3 µM | 6670 nM | 10.3 µM | 3080 | 3900 | 15800 nM | 2.43 | 3990 | 10300 | 3990 | 3920 nM |
| Clc1ccc(C2=NN[C@H](c3cn(-c4ccccc4)nc3-c3ccccc3)C2)cc1 | 8.29 | 37.5 | 17.9 | 16.9 | 44.9 µM | 18.8 | 32.1 | 28.2 | 5.52 | 28.4 µM | 2740 nM | 4.91 µM | 4800 | 4220 | 10400 nM | 3.91 | 7670 | 6470 | 2540 | 7060 nM |
